Reference: US20230083973A1, “SUBSTITUTED CYCLOPROPYL-2,2'-BIP[…], ANALOGUES THEREOF, AND METHODS USING SAME” (priority 2019, published 2023)

system: HBsAg; assay: HBsAg assay: inhibition of HBsAg in HepG2.2.15 cells (chemiluminescence immunoassay of supernatant); assay type: cell-based, hepatitis B virus; conditions: Hepatitis B virus, HepG2.2.15, 144 h, read-out: sAg EC50, HepG2.2.15 cells; HBsAg in supernatant at day 6 after exposure to compound; 0.5% DMSO
Method: Inhibition of HBsAg was determined in HepG2.2.15 cells. Cells were maintained in culture medium containing 10% fetal calf serum, […], Glutamine, penicillin/streptomycin. Cells were seeded in 96-well collagen-coated plate at a density of 30,000 cells/well. Serially diluted compounds were added to cells next day at the final DMSO concentration of 0.5%. Cells were incubated with compounds for 2-3 days, after which medium was removed. Fresh medium containing compounds was added to cells for additional 3-4 days. At day 6 after exposure of compounds, supernatant was collected, the HBsAg immunoassay (microplate-based chemiluminescence immunoassay kits, CLIA, Autobio Diagnosics Co., Zhengzhou, China, Catalog # CL0310-2) was used to determine the level of HBsAg according to manufactory instruction. Dose-response curves were generated and the EC50 value (effective concentrations that achieved 50% inhibitory effect) were determined using XLfit software. In addition, cells were seeded at a density of 5,000 cells/well for determination of cell viability in the presence and absence of compounds by using CellTiter-Glo reagent (Promega).
Table 1 illustrates EC50 values obtained by the HBsAg assay for selected compounds.

Compound	EC50 [nM]
Fc1cc([C@@H]2C[C@H]2c2cnc(-c3ncccn3)nc2)cc(OCCCN2CCOCC2)c1F (relative stereo) [Example 240, trans-4-(3-(5-(2-([2,2′-Bipyrimidin]-5-yl)cyclopropyl)-2,3-difluorophenoxy)propyl)morpholine]	210
OC1CC2(C1)CN(c1cc([C@@H]3C[C@H]3c3cnc(-c4ncccn4)nc3)cc(F)c1F)C2 (relative stereo) [Example 238, trans-2-(5-(2-([2,2′-Bipyrimidin]-5-yl)cyclopropyl)-2,3-difluorophenyl)-2-azaspiro[3.3]heptan-6-ol]	53
Fc1ccc(C2CN(c3cc([C@@H]4C[C@H]4c4cnc(-c5ncccn5)nc4)cc(F)c3F)C2)cc1F (relative stereo) [Example 214, trans-5-(2-(3-(3-(3,4-difluorophenyl)azetidin-1-yl)-4,5-difluorophenyl)cyclopropyl)-2,2′-bipyrimidine]	46
Cc1cnn(-c2cc([C@@H]3C[C@H]3c3cnc(-c4ncccn4)nc3)cc(F)c2F)c1 (relative stereo) [Example 232, trans-5-(2-(3,4-Difluoro-5-(4-methyl-1H-pyrazol-1-yl)phenyl)cyclopropyl)-2,2′-bipyrimidine]	28
CO[C@@H]1CCN(c2cc(C3CC3c3cnc(-c4ncccn4)nc3)ccc2F)C1 (single isomer, unassigned) [Example 94]	270
Fc1cc([C@@H]2C[C@H]2c2cnc(-c3ncccn3)nc2)cc(F)c1OCCCN1CCOCC1 (relative stereo) [Example 241, trans-4-(3-(4-(2-([2,2′-Bipyrimidin]-5-yl)cyclopropyl)-2,6-difluorophenoxy)propyl)morpholine]	830

same assay, conditions: read-out: sAg EC50; HepG2.2.15 cells; HBsAg in supernatant at day 6 after exposure to compound; 0.5% DMSO

Compound	EC50 [nM]
Fc1cc(C2CC2c2cnc(-c3ncccn3)nc2)cc(N2CCC3(COC3)C2)c1F (single isomer, unassigned) [Example 223, trans-6-(5-(2-([2,2′-Bipyrimidin]-5-yl)cyclopropyl)-2,3-difluorophenyl)-2-oxa-6-azaspiro[3.4]octane]	10
COc1cc(F)ccc1C1CC1c1cnc(-c2ncccn2)nc1 (single isomer, unassigned) [Example 9, trans-5-(2-(4-Fluoro-2-methoxyphenyl)cyclopropyl)-2,2′-bipyrimidine]	85
O[C@@H]1CCN(c2cc(C3CC3c3cnc(-c4ncccn4)nc3)ccc2F)C1 (single isomer, unassigned) [Example 70]	270
CN1CC[C@H](Nc2cc(C3CC3c3cnc(-c4ncccn4)nc3)cc(F)c2F)C1 (single isomer, unassigned) [Example 228]	15000
OC1CN(c2cc(C3CC3c3cnc(-c4ncccn4)nc3)ccc2F)C1 (single isomer, unassigned) [Example 53, trans-1-(5-(2-([2,2′-Bipyrimidin]-5-yl)cyclopropyl)-2-fluorophenyl)azetidin-3-ol]	500
COCCOc1cc(C2CC2c2cnc(-c3ncccn3)nc2)cc(F)c1F (single isomer, unassigned) [Example 134, trans-5-(2-(3,4-Difluoro-5-(2-methoxyethoxy)phenyl)cyclopropyl)-2,2′-bipyrimidine]	300
Clc1ccc(C2CC2c2cnc(-c3ncccn3)nc2)cc1N1CCCC1 (single isomer, unassigned) [Example 200, trans-5-(2-(4-Chloro-3-(pyrrolidin-1-yl)phenyl)cyclopropyl)-2,2′-bipyrimidine]	57
CC(=O)N1CC[C@H](Nc2cc(C3CC3c3cnc(-c4ncccn4)nc3)cc(F)c2F)C1 (single isomer, unassigned) [Example 225]	350
CO[C@H]1CCN(c2cc(C3CC3c3cnc(-c4ncccn4)nc3)cc(Cl)c2F)C1 (single isomer, unassigned) [Example 117]	11
COc1cc(C2CC2c2cnc(-c3ncccn3)nc2)cc(C)c1Cl (single isomer, unassigned) [Example 58, trans-5-(2-(4-Chloro-3-methoxy-5-methylphenyl)cyclopropyl)-2,2′-bipyrimidine]	290
